Series [1] in a line: MTT assay, RAW264.7 cell viability. The series is classed as cell-based. Conditions: mouse; RAW 264.7 cells; cytotoxic concentration that produces 50% cell death. The procedure:
(§1) The compounds 1 to 24 of the present invention is tested by three pharmacological activity tests as follows: (1) MTT assay to test the RAW264.7 cell (murine monocyte/macrophage cell line) viability; (2) Tartrate-resistant acid phosphatase (TRAP) staining and activity analysis to investigate the cell differentiation activity; (3) The activity test of bone resorption (Pit formation assay).
(§2) The synthesized difunisal derivatives, compounds 1 to 24, were pharmacologically tested to be identified the relationship between their structure and activity. Cell viability was measured by MTT assay in RAW 264.7 cells upon treatment with compounds at 5 μM. CC50 is the cytotoxic concentration that produces 50% (CC50) cell death. […] The multinucleated osteoclasts could be formed by RANKL-induced macrophage cell line […]. RAW 264.7 cells were cultured with the indicated in the presence of drug and RANKL (100 ng/mL). Numbers of TRAP-positive (TRAP^+) multinucleated cells (MNCs) were counted in the presence of RANKL to identify the relationship between osteoclast and bone formation. […] The compound 16 performed the best inhibitory effect in the TRAP staining. The compound 16 was a derivate from compound 4 and its structure was related to compound 4. Therefore, the compound 4 and 16 were performed by TRAP assay to evaluate the effect on osteoclast differentiation by different concentration of compounds. […] According to above result, it can be speculated that: (1) Due to different substitutes on benzene ring of difunisal, the inhibitory ability of RANKL-induced osteoclast differentiation would be different. (2) Due to the electron-withdrawing group substitutes of R1 and R4 on benzene ring, or electron-withdrawing group substitutes derivatives of R2 on benzene ring, such as compound 4. (R1═F and R4═F), compound 6 (R2═CF3), compound 9 (R2═CN) and compound 16 (R1═F and R4═F), (3) compound 4 (R1═F and R4═F) and compound 6 (R2═CF3), a cyclic derivate compound 16 (R1═F and R4═F) and compound 18 (R2═CF3), the inhibitory activity would be stronger.
In general terms: Tetrazolium assays rely on reduction of a dye to a coloured formazan, in cell work by metabolically active cells.

In another series the test system is RAW 264.7 cells. Briefly: MTT assay, RAW264.7 cell viability. Format: cell-based. Conditions: MTT assay, compounds at 5 μM. The procedure:
as §1, §2

For series [2], the system named is RANKL-induced osteoclast differentiation in RAW 264.7 cells. In words: TRAP staining, RANKL-induced osteoclast differentiation (TRAP+ multinucleated cells). Conditions: Mus musculus, RAW264.7; RAW 264.7 cells, RANKL (100 ng/mL), compounds at 5 μM, TRAP-positive multinucleated cells; read-out: Inhibition of MNCs (%). Format: cell-based, murine. The procedure: as §1, §2

A further series relates to NO production. In words: Measurement of NO concentrations (Griess reaction) in porcine chondrocytes. Format: cell-based. Conditions: Sus scrofa, Chondrocyte, nitrite in supernatants, read-out: anti-inflammatory IC50 (μM) on NO production. How it is done: Porcine cartilage was obtained from the hind leg joints of pigs. The synthesis of chondrocytes from cartilage was performed according to our previous report. After enzymatic digestion of articular cartilage with 2 mg/mL protease in serum-free Dulbecco's modified Eagle's medium (DMEM)/antibiotics, the specimens were then digested overnight with 2 mg/mL collagenase I and 0.9 mg/ml, hyaluronidase in DMEM containing 10% fetal bovine serum (FBS). The cells were collected, passed through a cell strainer (Becton Dickinson, Mountain View, Calif., USA), and cultured in DMEM containing 10% […] and antibiotics for 3-4 days before use.
The measurement of NO release was reflected by determination of its stable end product, nitrite, in supernatants. The Griess reaction was performed with the concentrations of nitrite measured by a spectrophotometer. In brief, an aliquot (100 μL) of culture supernatant was incubated with 50 μL of 0.1% sulfanilamide in 5% phosphoric acid and 50 μL of 0.1% N-1-naphthyl-ethylenediamine dihydrochloride. After 10 min of incubation at room temperature, the absorbance was measured at 550 nm wavelength with a plate reader (recall, Grodig, […]).
Background: The Griess reaction detects nitrite, a stable product of nitric oxide.

Molecules are shown by their SMILES. Some results are limits rather than exact numbers.

For orientation: CC50 means the concentration at which the toxic effect on the cells reaches its halfway point. As a reminder, the inhibition is the share of the control response that was lost under treatment. By IC50 is commonly meant the concentration at which inhibition is half-maximal.

As to `O=c1oc2ccc(-c3ccc(F)cc3F)cc2c(=O)n1-c1ccccc1C(F)(F)F` [compound 17, 6-(2,4-difluorophenyl)-3-(2-(trifluoromethy)phenyl)-2H-benzo[e][1,3]oxazine-2,4(3H)-dione], in series [1], half-maximal cytotoxicity (CC50) was put at 15.1 µM. In addition, the “Cell viability (%)” value in the series with RAW 264.7 cells came out at 95.53 ± 3.86%. Besides, in series [2], the inhibition at 5 µM is 31.6 ± 4%. Moreover, in the series on NO production, the IC50 is over 10 µM.
In the same order, the values of `COc1ccc(-n2c(=O)oc3ccc(-c4ccc(F)cc4F)cc3c2=O)cc1OC` [compound 23, 6-(2,4-difluorophenyl)-3-(3,4-dimethoxyphenyl)-2H-benzo[e][1,3]oxazine-2,4(3H)-dione] are over 20 µM, 103.05 ± 4.03%, 21.2 ± 2.49% and 0.47 µM.
In the same order, the values of `COc1cccc(-n2c(=O)oc3ccc(-c4ccc(F)cc4F)cc3c2=O)c1` [compound 24, 6-(2,4-difluorophenyl)-3-(3-methoxyphenyl)-2H-benzo[e][1,3]oxazine-2,4(3H)-dione] are over 20 µM, 105.53 ± 4.7%, 30.8 ± 5.77% and 1.95 µM.
The matching figures for `N#Cc1ccc(-n2c(=O)oc3ccc(-c4ccc(F)cc4F)cc3c2=O)cc1` [compound 22, 4-(6-(2,4-difluorophenyl)-2,4-dioxo-2H-benzo[e][1,3]oxazin-3(4H)-yl)benzonitrile]: over 20 µM, 108.33 ± 1.10%, 29.4 ± 5.48% and 0.55 µM.
`COc1cccc(NC(=O)c2cc(-c3ccc(F)cc3F)ccc2O)c1` [compound 12, 2′,4′-difluoro-4-hydroxy-N-(3-methoxyphenyl)-[1,1′-biphenyl]-3-carboxamide]: in series [1], the CC50 is over 20 µM. Moreover, in the series with RAW 264.7 cells, the “Cell viability (%)” value was found to be 104.90 ± 2.62%. In addition, the inhibition at 5 µM in series [2] was 40.8 ± 2.65%. Also, the IC50 with NO production worked out at 2.24 µM.
The matching figures for `N#Cc1cccc(NC(=O)c2cc(-c3ccc(F)cc3F)ccc2O)c1` [compound 9, N-(3-cyanophenyl)-2′,4′-difluoro-4-hydroxy-[1,1′-biphenyl]-3-carboxamide]: 12.3 µM, 72.15 ± 0.36%, 71.3 ± 3.39% and over 10 µM.
In the same order, the values of `N#Cc1cccc(-n2c(=O)oc3ccc(-c4ccc(F)cc4F)cc3c2=O)c1` [compound 21, 3-(6-(2,4-difluorophenyl)-2,4-dioxo-2H-benzo[e][1,3]oxazin-3(4H)-yl)benzonitrile] are 14.9 µM, 102.79 ± 1.93%, 34 ± 6.98% and over 10 µM.
In the same order, the values of `O=C(Nc1ccc(Cl)cc1F)c1cc(-c2ccc(F)cc2F)ccc1O` [compound 1, N-(4-chloro-2-fluorophenyl)-2′,4′-difluoro-4-hydroxybiphenyl-3-carboxamide] are 17.9 µM, 77.54 ± 1.17%, 44.3 ± 7.93% and 7.94 µM.
`O=C(O)c1cc(-c2ccc(F)cc2F)ccc1O` [Diflunisal, reference compound] yielded a cytotoxic concentration (CC50) in series [1] of over 20 µM. In addition, in the series on RAW 264.7 cells, the “Cell viability (%)” value is given as 103.82 ± 1.78%. Moreover, the inhibition at 5 µM in series [2] came to 23.9 ± 1.88%. Besides, the half-inhibitory concentration (IC50) with NO production is over 10 µM.
The matching figures for `N#Cc1ccc(NC(=O)c2cc(-c3ccc(F)cc3F)ccc2O)cc1` [compound 10, N-(4-cyanophenyl)-2′,4′-difluoro-4-hydroxy-[1,1′-biphenyl]-3-carboxamide]: 14.4 µM, 96.24 ± 2.29%, 13.9 ± 1.23% and over 10 µM.
On to `COc1ccc(NC(=O)c2cc(-c3ccc(F)cc3F)ccc2O)cc1OC` [compound 11, N-(3,4-dimethoxyphenyl)-2′,4′-difluoro-4-hydroxy-[1,1′-biphenyl]-3-carboxamid], for which, in series [1], the 50% cytotoxic concentration (CC50) was over 20 µM. Moreover, the “Cell viability (%)” value with RAW 264.7 cells is given as 98.87 ± 2.06%. Further, the inhibition at 5 µM in series [2] is 51.9 ± 6.5%. Further, in the series with NO production, the IC50 was 1.5 µM.
In the same order, the values of `O=C(Nc1ccc(F)c(F)c1)c1cc(-c2ccc(F)cc2F)ccc1O` [compound 3] are 14.6 µM, 78.42 ± 3.79%, 47.4 ± 5.58% and 0.79 µM.
The compound `O=C(Nc1ccc(C(F)(F)F)cc1)c1cc(-c2ccc(F)cc2F)ccc1O` [compound 7, 2′,4′-difluoro-4-hydroxy-N-(4-(trifluoromethyl)phenyl)-[1,1′-biphenyl]-3-carboxamide] had a 50% cytotoxic concentration (CC50) in series [1] of 10.4 µM. For the same compound, the “Cell viability (%)” value in the series on RAW 264.7 cells was 85.22 ± 3.83%. Besides, the inhibition at 5 µM in series [2] is 51.5 ± 6.25%. Further, the IC50 in the series on NO production came to 0.64 µM.
The matching figures for `O=c1oc2ccc(-c3ccc(F)cc3F)cc2c(=O)n1-c1ccc(F)c(F)c1` [compound 15]: 9.96 µM, 72.15 ± 0.43%, 17.4 ± 7.49% and 0.61 µM.
With `O=C(Nc1cccc(C(F)(F)F)c1)c1cc(-c2ccc(F)cc2F)ccc1O` [compound 6, 2′,4′-difluoro-4-hydroxy-N-(3-(trifluoromethyl)phenyl)[1,1′-biphenyl]-3-carboxamide], the CC50 in series [1] came to 14.3 µM. Also, in the series with RAW 264.7 cells, the “Cell viability (%)” value worked out at 96.73 ± 1.18%. For the same compound, the inhibition at 5 µM in series [2] turned out to be 59.2 ± 2.28%. Besides, the IC50 in the series with NO production worked out at 0.71 µM.
The compound `O=c1oc2ccc(-c3ccc(F)cc3F)cc2c(=O)n1-c1ccc(C(F)(F)F)cc1` [compound 19, 6-(2,4-difluorophenyl)-3-(4-(trifluoromethyl)phenyl)-2H-benzo[e][1,3]oxazine-2,4(3H)-dione] returned a CC50 in series [1] of 15.5 µM. Also, the “Cell viability (%)” value in the series on RAW 264.7 cells is recorded as 103.01 ± 2.51%. Moreover, in series [2], the inhibition at 5 µM was 16.9 ± 4.61%. Also, the IC50 in the series on NO production stood at 0.75 µM.
The matching figures for `C#Cc1cccc(NC(=O)c2cc(-c3ccc(F)cc3F)ccc2O)c1` [compound 8, N-(3-ethynylphenyl)-2′,4′-difluoro-4-hydroxy-[1,1′-biphenyl]-3-carboxamide]: over 20 µM, 62.95 ± 0.85%, 40.6 ± 2.01% and 2.45 µM.
In the same order, the values of `O=C(Nc1ccccc1C(F)(F)F)c1cc(-c2ccc(F)cc2F)ccc1O` [compound 5] are over 20 µM, 99.37 ± 3.71%, 42.8 ± 6.51% and over 10 µM.
In the same order, the values of `O=C(Nc1ccc(F)cc1F)c1cc(-c2ccc(F)cc2F)ccc1O` [compound 2, N-(2,4-difluorophenyl)-2′,4′-difluoro-4-hydroxybiphenyl-3-carboxamide] are over 20 µM, 109.62 ± 3.37%, 32.2 ± 5.58% and 0.95 µM.
Turning to `O=c1oc2ccc(-c3ccc(F)cc3F)cc2c(=O)n1-c1ccc(Cl)cc1F` [compound 13, 3-(4-chloro-2-fluorophenyl)-6-(2,4-difluorophenyl)-2H-benzo[e][1,3]oxazine-2,4(3H)-dione], in series [1], the 50% cytotoxic concentration (CC50) is over 20 µM. Also, the “Cell viability (%)” value with RAW 264.7 cells was 96.22 ± 0.53%. Moreover, in series [2], the inhibition at 5 µM came to 19.4 ± 1.4%. The IC50 with NO production is 1.08 µM.
